According to US20120020915A1, “Compounds and Methods for Treating Cancer and Diseases of the Central Nervous System” (QUEENS UNIVERSITY AT KINGSTON, priority 2007, published 2012):
Where a name gives a salt, the structure may show the parent alone. Read-outs that look alike come from different tables or passages of the source.

How the values were obtained:
[1] = target: T1, HO-2 (rat brain) (Rattus norvegicus, UniProt P23711); experiment: HO enzymatic activity, rat brain microsomal fraction (CO formation from methemalbumin); type: biochemical; conditions: CO formation from methemalbumin, mean ± SD of replicate experiments
T1 construct: brain microsomes were used as a source of HO-2; from tissue; host or cells: brain microsomal fraction of adult male Sprague-Dawley rats
T1 sequence (P23711 1-315): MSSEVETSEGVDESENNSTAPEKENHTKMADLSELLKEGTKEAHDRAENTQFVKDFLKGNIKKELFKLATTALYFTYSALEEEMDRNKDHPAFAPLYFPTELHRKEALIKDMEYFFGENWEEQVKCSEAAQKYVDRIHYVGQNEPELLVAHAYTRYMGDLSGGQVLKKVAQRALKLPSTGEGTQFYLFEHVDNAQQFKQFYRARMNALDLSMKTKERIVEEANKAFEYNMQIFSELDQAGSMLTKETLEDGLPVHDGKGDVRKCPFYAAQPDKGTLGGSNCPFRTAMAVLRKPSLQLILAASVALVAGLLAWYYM
Procedure: (§1) Incubations for HO activity analysis were done under conditions for which the rate of CO formation (pmol CO×min^−1×mg protein^−1) was linear with respect to time and microsomal protein concentration. Briefly, reaction mixtures (150 μL) consisting of 100 mM phosphate buffer (pH 7.4), 50 μM methemalbumin, and 1 mg/mL protein were pre-incubated with the inhibitors at final concentrations ranging from 0.1-100 μM for 10 minutes at 37° C. Reactions were initiated by adding NADPH at a final concentration of 1 mM and incubations were performed for an additional 15 minutes at 37° C.
(§2) Incubations for HO activity analysis were done under conditions for which the rate of CO formation (pmol CO/mg protein/minute) was linear with respect to time and microsomal protein concentration. Briefly, reaction mixtures (150 μL) consisting of 100 mM phosphate buffer (pH 7.4), 50 μM methemalbumin and 1 mg/mL protein were pre-incubated with the vehicle (ethanol or water in which the inhibitors were dissolved), or inhibitors at final concentrations ranging from 0.1-1000 μM for 10 minutes at 37° C. Reactions were initiated by adding β-NADPH at a final concentration of 1 mM and incubations were carried out for an additional 15 minutes at 37° C. Reactions were stopped by instantly freezing the reaction mixture on pulverized dry ice and CO formation was measured by gas chromatography using a TA 3000R Process Gas Analyzer (Trace Analytical/Ametek, Newark, Del., USA).
(§3) The values on the abscissa represent the decimal logarithm of the inhibitor's concentration (in μM), whereas the values of the activity on the ordinate are expressed as a percentage of the control experiments without inhibitor.
(§4) The IC50 values for the replicate experiments were employed to generate the reported standard deviation value.

[2] = target: T2, HO-1 (rat spleen) (Rattus norvegicus, UniProt P06762); experiment: HO enzymatic activity, rat spleen microsomal fraction (CO formation from methemalbumin); type: biochemical; conditions: CO formation from methemalbumin, mean ± SD of replicate experiments
T2 construct: Spleen microsomes were used as a source of HO-1; from tissue; host or cells: spleen microsomal fraction of adult male Sprague-Dawley rats
T2 sequence (P06762 1-289): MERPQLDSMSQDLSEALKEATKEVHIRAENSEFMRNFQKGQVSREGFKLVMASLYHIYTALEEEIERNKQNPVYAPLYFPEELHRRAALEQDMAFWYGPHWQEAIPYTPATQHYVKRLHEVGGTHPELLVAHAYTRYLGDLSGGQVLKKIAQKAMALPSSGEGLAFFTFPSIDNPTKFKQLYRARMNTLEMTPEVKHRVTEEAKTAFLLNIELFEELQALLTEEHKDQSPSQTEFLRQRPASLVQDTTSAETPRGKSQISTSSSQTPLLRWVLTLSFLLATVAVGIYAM
Procedure: as §1, §2, §3, §4

[3] = read-out: IC50 HO-2 (rat brain)/μM)
[4] = read-out: IC50 HO-1 (rat spleen/μM)

IC50 [1, 3] [µM]	IC50 [2, 4] [µM]	Structure (SMILES)	IC50 ([1]; IC50 HO-2 (rat brain)/μM)) [µM]	IC50 ([2]; IC50 HO-1 (rat spleen/μM)) [µM]
> 100	> 100	NCCc1c[nH]cn1 [QC-67, Histamine dihydrochloride, reference compound]		
> 100	> 100	CSCC[C@@H](N)C(=O)O [QC-69, D-methionine, reference compound]		
> 100	> 100	O=C(n1ccnc1)C(F)(F)F [QC-77, N-trifluoroacetylimidazole]		
> 100	> 100	c1cn(CCCCn2ccnc2)cn1 [QC-88, 1,4-bis-(1H-imidazol-1-yl)butane dihydrochloride]		
> 100	> 100	c1cn(CCCCCCn2ccnc2)cn1 [QC-89, 1,6-bis-(1H-imidazol-1-yl)hexane dihydrochloride]		
> 100	> 100	c1ccc(CCC2(Cn3cccn3)OCCO2)cc1 [QC-95, 2-phenylethyl-2-[(1H-pyrazole-1-yl)methyl]-1,3-dioxolane hydrochloride]		
> 100	163 ± 10	O=C(CCc1ccccc1)C[n+]1ccncc1 [QC-97, 1-(4-phenyl-2-oxo-butyl)-pyrazin-1-ium bromide]		
> 100	> 100	O=C(c1ccc(-n2ccnc2)cc1)C1CC1 [QC-98, Cyclopropyl-(4-imidazol-1-yl-phenyl)methanone hydrochloride]		
> 100	> 100	CCCC(=O)n1ccnc1 [QC-100, N-butyrylimidazole]		
> 100	> 100	O=C(NCCCn1ccnc1)Nc1ccccc1 [QC-107, 1-(3-Imidazol-1-yl-propyl)-3-phenyl-urea]		
> 100	> 100	O=C(NCCCn1ccnc1)c1ccccc1 [QC-109, N-(3-Imidazol-1-yl-propyl)-benzamide]		
> 100	> 100	CSc1nccn1CC(=O)CCc1ccccc1 [QC-113, 1-(2-Methylsulfanyl-imidazol-1-yl)-4-phenyl-butan-2-one]		

Second part, the compound before the results:

Structure (SMILES)	IC50 [1, 3] [µM]	IC50 [2, 4] [µM]	IC50 ([1]; IC50 HO-2 (rat brain)/μM)) [µM]	IC50 ([2]; IC50 HO-1 (rat spleen/μM)) [µM]
O=C(O)Cn1ccnc1 [QC-66, Imidazol-1-yl-acetic acid]	> 100	> 100		
N[C@@H](Cc1c[nH]cn1)C(=O)O [QC-68, L-histidine hydrochloride monohydrate, reference compound]	> 100	> 100		
Clc1ccc(CCC2(Cn3ccnc3)OCCCO2)cc1 [QC-70, 2-[2-(4-chlorophenyl)ethyl]-2-[(1H-imidazol-1-yl)methyl]-1,3-dioxane hydrochloride]			> 100	20 ± 4
Clc1ccc(CCC2(Cn3ccnc3)O[C@H]3CCCC[C@H]3O2)cc1 (stereo partly shown) [QC-71, 1-{2-[2-(4-Chlorophenyl)-ethyl]-hexahydrobenzo[1,3]dioxol-2-ylmethyl}-1H-imidazole]			> 100	69 ± 7
COc1ccc(CCC(=O)Cn2ccnc2)cc1 [QC-72, 1-(1H-imidazol-1-yl)-4-(4-methoxyphenyl)-2-butanone hydrochloride]			29 ± 19	2.2 ± 0.9
O=C(CCn1ccnc1)c1ccccc1O [QC-75, 1-(2-hydroxyphenyl)-3-imidazol-1-yl-propan-1-one]			> 100	25 ± 12
CN(C)CCC(=O)c1ccc(Cl)cc1 [QC-84, 1-(4-chlorophenyl)-3-dimethylamino-propan-1-one]			> 100	> 100
O=C(CCn1ccnc1)c1ccc(Cl)cc1 [QC-85, 1-(4-chlorophenyl)-3-imidazol-1-yl-propan-1-one hydrochloride]			> 100	32 ± 3
CCOC(=O)c1nccn1CC(=O)CCc1ccccc1 [QC-110, 1-(2-Oxo-4-phenyl-butyl)-1H-imidazole-2-carboxylic acid ethyl ester hydrochloride]			> 100	> 100
O=C(CCc1ccccc1)Cn1ncnn1 [QC-117, 4-Phenyl-1-tetrazol-2-yl-butan-2-one hydrochloride]	37 ± 25			9.6 ± 0.2
O=C(CCc1ccccc1)Cn1cnnn1 [QC-118, 4-Phenyl-1-tetrazol-1-yl-butan-2-one hydrochloride]	20 ± 10			2.6 ± 0.9
